# Assay results: US4183931A, “2-Ketoalkyl-4(3H)-quinazolinones” (Research Corporation, priority 1977, dated 1980)
# Assays:
# Assay type in all cases: in vivo, mice
# [1] = NINCDS primary evaluation, overall classification; settings: mouse, in vivo
# Procedure: 1. Neurological Activity Tests. The biological testing program is designed to evaluate the following four aspects of drug action: (1) the existence and specificity of anticonvulsant activity; (2) the toxicity, particularly to the central nervous system; and, if the results of (1) and (2) are favorable, (3) the potency and protective index, a comparison between toxic and effective dose and (4) the time course of activity. Compounds were evaluated for anticonvulsant activity in two seizure models, the maximal electroshock seizure (MES) test and the subcutaneous pentylenetetrazol (Metrazol) seizure threshold (scMet) test.
# Specific anticonvulsant evaluations performed by NINCDS using MES, scMet and Rotorod assays are presented in Tables III & IV for fourteen new compounds as well as several known compounds. Table III centers attention on 2-substituted-3-o-tolyl-4-(3H)-quinazolinones while Table IV includes the findings for various other 2,3-disubstituted-4(3H)-quinazolinones. As described earlier, the MES, scMet and Rotorod tests were performed one-half hour and four hours after administration of each compound. The tables identify the dosage level that elicited a positive result, such as protection against MES and scMet induced seizures, or loss of balance on the rotorod.
# [2] = NINCDS Maximal Electroshock Seizure Test (MES); settings: for minimal effective dose: read-out: MES: dosage level that elicited protection
# Procedure: 1. Neurological Activity Tests. […] Compounds were evaluated for anticonvulsant activity in two seizure models, the maximal electroshock seizure (MES) test and the subcutaneous pentylenetetrazol (Metrazol) seizure threshold (scMet) test.
# The Maximal Electroshock Seizure Test was performed according to the method described by Swinyard and coworkers,* wherein a drop of 0.9% saline is instilled in each eye prior to application of corneal electrodes. Seizures are elicited with a 50 Hz alternating current of 50 mA (5 to 7 times that necessary to elicit minimal electroshock seizures) delivered for 0.2 sec via corneal electrodes. This stimulus will produce a maximal seizure in all normal mice. The maximal seizure typically consists of a short period of initial tonic flexion and a prolonged period of hind limb tonic extension, followed by terminal clonus. The seizure lasts about 22 seconds. Abolition of the hind limb tonic extensor component of the seizure is defined as protection and indicates anticonvulsant activity in the test compound.
# The ability of a compound to prevent maximal electroshock seizures is believed to correlate with its ability to prevent the spread of seizure discharge through neural tissue. Activity against maximal electroshock seizures is thought to indicate potential efficacy in the treatment of major motor (grand mal) seizures. […] Selective action in the test is believed to indicate potential efficacy against absence (petit mal) seizures.
# As described earlier, the MES, scMet and Rotorod tests were performed one-half hour and four hours after administration of each compound.
# In the Secondary Evaluation, median effective doses (ED50) are determined in the MES, scMet and Rotorod assays using the procedures defined in Pharmacology, 95, 99-113 (1949).
# Separate groups of animals are used for each time period. The times of peak toxic and anticonvulsant effect are taken from the resulting graph of percent of animals responding vs. time, and the determinations of median effective doses are performed at those times.
# [3] = NINCDS Subcutaneous Pentylenetetrazol (Metrazol) Seizure Threshold Test (scMet); settings: for minimal effective dose: sc, read-out: scMet: dosage level that elicited protection
# [4] = Mus musculus, ip, secondary evaluation, at time of peak effect
smiles,measurement,setting,value
"O=C(Cc1nc2ccccc2c(=O)n1-c1ccccc1Cl)c1ccncc1 [IVd, 2-[2-Oxo-2-(4-pyridyl)ethyl]-3-o-chlorophenyl-4(3H)-quinazolinone]",dosage for useful anticonvulsant activity relative to dosage for sedative-hypnotic activity,[1],fourfold lower
same,minimal effective dose,"[2]; Mus musculus, ip, after 0.5 hr",300 mg/kg
same,minimal effective dose,"[2]; Mus musculus, ip, after 4 hr (value in parentheses)",100 mg/kg
same,ED50,[2]; [4],33.5 mg/kg
same,MES protective index compared with methaqualone,[2]; secondary evaluation,approximately four-fold higher
same,PI MES (Protective Index = TD50/ED50),[2]; secondary evaluation,4.08
same,potency against electroshock-induced (MES) seizures compared with methaqualone,[2]; secondary evaluation,more potent
same,MES protective index compared with commercial agents,"[2]; vs Ethotoin, Mephenytoin, Phenobarbital, Metharbital, Trimethadione, Paramethadione, Methsuximide, Phensuximide, Diazepam, Clonazepam",higher MES protective index
same,ED50,[3]; [4],30.8 mg/kg
same,minimal effective dose,"[3]; Mus musculus, after 0.5 hr",30 mg/kg
same,minimal effective dose,"[3]; Mus musculus, after 4 hr (value in parentheses)",100 mg/kg
same,PI scMet (Protective Index = TD50/ED50),[3]; secondary evaluation,4.44
same,potency against scMet seizures compared with methaqualone,[3]; secondary evaluation,more potent
same,scMet protective index compared with Ethosuximide,[3]; secondary evaluation,higher scMet protective index than Ethosuximide
same,scMet protective index compared with methaqualone,[3]; secondary evaluation,approximately four-fold higher
same,scMet ED50 compared with commercial petit mal agents,"[3]; vs Ethotoin, Trimethadione, Paramethadione, Ethosuximide, Methsuximide, Phensuximide, Phenacamide (data of DHEW Publication No. (NIH) 76-1093)",lower ED50 in the scMet screen than the commercially available petit mal agents
